How the values were obtained:
[1] = system: intracellular protein kinase C (PKC) in Jurkat cells; test: pseudo-RACK1-induced optical signals of Jurkat cells anchored on RWG biosensor surfaces; assay type: cell-based, human
Description: The Jurkat cells, which present antigens at the cell's surface, were contacted with four different surface types: a bare waveguide substrate having a thin layer of silicon oxide (i.e., SiOx/Nb2O5, uncoated biosensor substrate) (810), a SiOx/Nb2O5 surface having anti-human CD3 (anti-CD3) (820), a SiOx/Nb2O5 surface having amino-reactive polymer EMA coating (EMA) (830), and a SiOx/Nb2O5 surface having covalently coupled anti-human CD3 (i.e., anti-CD3-EMA) (840). The anti-CD3 surface was achieved by incubating a solution containing anti-human CD3 antibody (25 μg/ml) onto the bare SiOx/Nb2O5 surface for 1 hour, followed by washing and drying. The EMA surface was prepared as described above, i.e., by sequentially coating the bare SiOx/Nb2O5 surface with aminopropylsilane and then EMA. The anti-CD3/EMA surface was prepared by incubating anti-human CD3 (25 μg/ml) solution with the EMA surface for 1 hour, followed by blocking with ethanolamine at 1% for 1 hour. The Jurkat cells were incubated on either surface for about 2 hours before assays. The kinetic response, before and after the pseudo-RACK1 addition, was recorded in real time.
Pseudo-RACK1 is a peptide (OH-lys-lys-trp-lys-met-arg-arg-asn-gln-phe-trp-ile-lys-ile-gln-arg-cys----cys-ser-val-glu-ile-trp-asp-OH) and activates intracellular protein kinase C (PKC).

CHO-KCNQ cells = test: ATP-induced DMR signals of CHO-KCNQ cells on RWG biosensor; assay type: cell-based, Chinese hamster
Description: Referring to the Figures, FIGS. 1A and 1B show cross-sectional configurations of two examples of RWG biosensors used for living cell sensing. In FIG. 1A a cell (10) is directly cultured onto the unmodified or bare surface of the waveguide thin film (15) of a RWG biosensor (18) having a waveguide grating atop a substrate. In FIG. 1B a cell (10) is cultured onto the surface of an inorganic thin film (19) which has been previously deposited onto the surface of the waveguide thin film (15). Here a thin film of silicon oxide of about 1 nm to about 5 nm is directly deposited onto the surface of a waveguide thin film of niobium oxide by vapor deposition method. Each biosensor associated cell has an approximate penetration depth (20). […] CHO-KCNQ is an engineered CHO cell having over-expressed a potassium ion channel KCNQ2. FIGS. 2A and 2B compare the ATP-induced DMR signals, response units versus time, of CHO-KCNQ cells: The FIG. 2A cells were cultured on an unmodified or bare niobia surface of the waveguide thin film of a Corning® Epic™ RWG biosensor; and FIG. 2B cells were cultured on a biosensor having, for example, a discontinuous thin film modified waveguide surface of silicon dioxide particles. […]

[2] = system: endogenous P2Y receptors in HEK 293 cells; test: ATP-induced DMR signals of HEK293 cells on coated RWG biosensor surfaces; assay type: cell-based, human
Description: Three surface densities were individually prepared by slow evaporation of 0.0015%, 0.1% and 1.5 weight % gelatin solutions, as described above, covering the biosensor surfaces. The resultant respective gelatin surfaces were referred to as low-, medium-, and high-density gelatin surfaces, respectively. HEK293 cells were separately cultured onto these surfaces.
P2Y receptors belong to the family of G protein-coupled receptors. HEK 293 cells endogenously express several isoforms of P2Y receptors. […] The arrow (540) indicates when the stimulus, an ATP solution, was introduced.
FIGS. 6A and 6B show the reproducibility and robustness of a cell assay of the disclosure using HEK293 cells that were cultured on a low-density gelatin-coated 384-well Epic™ biosensor microplate. A 10 micromolar ATP solution was added to selected well of column 15 of the microplate. The ATP-induced DMR response signals within one column (16 wells) were recorded in real time in seconds and plotted in FIG. 6A. The amplitudes of the initial positive DMR (P-DMR) event (wavelength shift) of the ATP-induced DMR signals were plotted as a function of well numbers 1-16 in FIG. 6B. The assay Coefficient of Variability (CV), or reproducibility, was about 4%, indicating a relatively high reproducibility, with an average signal of 193 picometers (pm), and a standard deviation of 8 pm.
To covalently couple RGD-like peptides to the biosensor surface, the biosensor was coated sequentially with a thin layer of silicon oxide (about 3 nm), aminopropylsilane (about 1-3 nm), poly(ethylene-alt-maleic anhydride) (EMA) (forming polymeric clusters), and finally a RGD-like peptide (Gly-Arg-Gly-Asp-Ser, GRGDS). Specifically, a thin layer of silicon oxide was deposited onto the Corning Epic™ niobium oxide waveguide surface up to 3 nm. Afterwards, the biosensor was coated with an aminopropylsilane solution of about 0.1 vol/vol %, washed and dried, followed by the interaction with an EMA solution of about 0.01 wt/vol %, and washed and dried. Finally, a GRGDS solution was applied to the EMA biosensor surface. […]

Compound	optical signal after stimulation ([1]; 9 μM, Jurkat cells on anti-CD3, EMA and anti-CD3-EMA surfaces (FIG. 8A))	optical signal after stimulation ([1]; Jurkat cells on bare SiOx/Nb2O5 surface (FIG. 8A))	ATP-induced DMR signal, average signal (CHO-KCNQ cells; CHO-KCNQ cells cultured on discontinuous thin film of silicon dioxide particles on waveguide (FIG. 2B)) [pm]	ATP-induced DMR signal, average signal (CHO-KCNQ cells; CHO-KCNQ cells cultured on unmodified or bare niobia waveguide surface (FIG. 2A)) [pm]	amplitude of initial positive DMR (P-DMR) event, average signal ([2]; 10 micromolar ATP, HEK293 cells on low-density gelatin-coated 384-well Epic microplate, 16 wells (FIG. 6))	ATP-induced DMR response intensity ([2]; 20 micromolar ATP, HEK293 cells on GRGDS-derivatized EMA surfaces made with 10, 30, 100, 250 micromolar GRGDS (FIG. 7))	detection of ATP-induced DMR signals ([2]; HEK293 cells on low-, medium- and high-density gelatin-coated surfaces (FIG. 5))
OH-lys-lys-trp-lys-met-arg-arg-asn-gln-phe-trp-ile-lys-ile-gln-arg-cys----cys-ser-val-glu-ile-trp-asp-OH [pseudo-RACK1]	significant optical signals	did not led to any detectable optical signal	–	–	–	–	–
Nc1ncnc2c1ncn2[C@@H]1O[C@H](COP(=O)(O)OP(=O)(O)OP(=O)(O)O)[C@@H](O)[C@H]1O [ATP, adenosine triphosphate]	–	–	144	115	193 picometers (pm)	increasing response intensity	Only the low-density gelatin-coated surface enabled the detection
